Results published in PMC10819888, “Benzimidazole-Based Derivatives as Apoptotic Antiproliferative Agents: Design, Synthesis, Docking, and Mechanistic Studies” (Molecules, 2024).
Like-named read-outs stand apart in the source and are kept apart here.

How the values were obtained:
[1] = test system: BRAF^V600E; design: method as in PMID 18942827; conditions: cited from earlier work
[2] = test system: four cancer cell lines; design: method as in PMID 37716963; conditions: against four cancer cell lines; cited from earlier work
[3] = test system: BRAF^V600E; design: method as in PMID 37716963; conditions: cited from earlier work
[4] = test system: caspase-3; test: Caspase-3 activation assay; assay type: cell-based, human; conditions: PC-3 cell line
Description: Caspase-3 is a key caspase that cleaves numerous cell proteins, resulting in apoptosis. […] They elevated the protein caspase-3 in the PC-3 cancer cell line by around seven to nine times compared to untreated control cells.
(§1) For more details, see Supplementary Materials. […]
4.2.3. Caspase-3 activation assay
Allow all reagents to reach room temperature before use. Gently mix all liquid reagents prior to use. Determine the number of 8-well strips needed for the assay. Insert these in the frame(s) for current use. Add 100 μl of the Standard Diluent Buffer to the zero standard wells. Well(s) reserved for chromogen blank should be left empty. Add 100 μl of standards and controls or diluted samples to the appropriate microtiter wells. The sample dilution chosen should be optimized for each experimental system. Tap gently on side of plate to mix. Cover wells with plate cover and incubate for 2 hours at room temperature. Thoroughly aspirate or decant solution from wells and discard the liquid, Wash wells 4 times. Pipette 100 μl of Caspase-3 (Active) Detection Antibod y solution into each well except the chromogen blank(s). Tap gently on the side of the plate to mix.
Cover plate with plate cover and incubate for 1 hour at room temperature. Thoroughly aspirate or decant solution from wells and discard the liquid, Wash well s 4 times. Add 100 μl Anti-Rabbit IgG HRP Working Solution to each well except the chromogen blank(s). Prepare the working dilution as described in Preparing IgG HRP. Cover wells with the plate cover and incubate for 30 minutes at room temperature. Thoroughly aspirate or decant solution from wells and discard the liquid. Wash wells 4 times. Add 100 μl of Stabilized Chromogen to each well. The liquid in the wells will begin to turn blue. Incubate for 30 minutes at room temperature and in the dark. The incuba tion time for chromogen substrate is often determined by the microtiter plate reader used. Many plate readers have the capacity to record a maximum optical density (O.D.) of 2.0. The O.D. values should be monitored, and the substrate reaction stopped befor e the O.D. of […]
the positive wells exceeds the limits of the instrument. The O.D. values at 450 nm can only be read after the Stop Solution has been added to each well. If using a reader that […]
100 μl of Stop Solution to each well. Tap side of plate gently to mix. The solution in the wells should change from blue to yellow. Read the absorbance of each well at 450 nm having blanked the plate reader against a chromogen blank composed of 100 μl each of Stabilized Chromogen and Stop Solution. Read the plate within 2 hours after adding the Stop Solution. Use a curve fitting software to generate the standard curve. A four-parameter algorithm provides the best standard curve fit. Read the concentrations for unknown samples and controls from the standard curve. Multiply value(s) obtained for sample(s) by the appropriate dilution factor to correct for the dilution in step 3. Samples producing signals greater than that of the highest standard should be diluted in Standard Diluent Buffer and reanalyzed. […]
A standard curve is […]
prepared from 7human Caspase-8 standard dilutions and human Caspase-8 concentration determined.

[5] = test system: Bax; test: Bax activation assay; assay type: cell-based, human; conditions: PC-3 cell line
Experimental: For more details, see Supplementary Materials.
4.2.5. Bax activation assay
Bring all reagents, except the human Bax-α Standard, to room temperature for at least 30 minutes prior to opening. The human Bax -α Standard solution should not be left at room temperature for more than 10 minutes. All standards, controls and samples should be run in duplicate. Refer to the Assay Layout Sheet to determine the number of wells to be used and put any remaining wells with the desiccant back into the pouch and seal the ziploc. Store unused wells at 4 °C. Pipet 100 μL of Assay Buffer into the S0 ( 0 pg/mL standard) wells. Pipet 100 μL of Standards #1 through #6 into the appropriate wells. Pipet 100 μL of the Samples into the appropriate wells. Tap the plate gently to mix the contents. Seal the plate and incubate at room temperature on a plate shaker for 1 hour at ~500 rpm. Empty the contents of the wells and wash by adding 400 μL of wash solution to every well. Repeat the wash 4 more times for a total of 5 washes. After the final wash, empty or aspirate the wells and firmly tap the plate on a lint fr ee paper towel to remove any remaining wash buffer. Pipet 100 μL of yellow Antibody into each well, except the Blank. Seal the plate and incubate at room temperature on a plate shaker for 1 hour at ~500 rpm. Empty the contents of the wells and wash by addi ng 400 μL of […]
the final wash, empty or aspirate the wells and firmly tap the plate on a lint free paper towel to remove any remaining wash buffer. Add 100 μL of blue Co njugate to each well, except the Blank. Seal the plate and incubate at room temperature on a plate shaker for 30 minutes at ~500 rpm. Empty the contents of the wells and wash by adding 400 μL of wash solution to every well. Repeat the wash 4 more times for a total of 5 washes .
After the final wash, empty or aspirate the wells and firmly tap the plate on a lint free paper towel to remove any remaining wash buffer. Pipet 100 μL of Substrate Solution into each well. Incubate for 30 minutes at room temperature on a plate shaker at ~500 rpm. Pipet 100 μL Stop Solution to each well. Blank the plate reader against the Blank wells, read the optical density at 450 nm. Calculate the average net Optical Density (OD) bound for each standard and sample by subtracting the average Blank OD from the average OD for each standard and sample. Using linear graph paper, plot the Average Net OD for each standard versus Bax concentration in each standard.
Approximate a straight line through the points. The concentration of Bax in the unknowns can be determined by interpolation. […]

[6] = test system: Bcl-2; test: Bcl-2 inhibition assay; assay type: cell-based, human; conditions: PC-3 cell line
Experimental: as §1
4.2.6. Bcl-2 inhibition assay
Mix all reagents thoroughly without foaming before use. Wash the microwells twice with approximately 300 μL Wash Buffer per well with thorough aspiration of microwell contents between washes. Take caution not to scratch the surface of the microwells.
After the last wash, empty the wells and tap microwell strips on absorbent pad or paper towel to remove excess Wash Buffer. Use the microwell strips immediately after washing or place upside down on a wet absorbent paper for not longer than 15 minutes.
Add 100 μL of Sample Diluent in duplicate to all standard wells and to the blank wells. Prepare standard (1:2 dilution) in duplicate ranging from 32 ng/mL to 0.5 ng/mL. Add 100 μL of Sample Diluent, in duplicate, to the blank wells.
Add 80 μL of Sample Diluent, in duplicate, to the sample wells. Add 20 μL of each Sample, in duplicate, to the designated wells. Add 50 μL of diluted biotin-conjugate to all wells, including the blank wells. Cover with a plate cover and incubate at room temperature, on a microplate shaker at 100 rpm if available, for 2 hours. Remove plate cover and empty the wells. Wash microwell strips 3 times as described in step 2. Add 100 μL of diluted Streptavidin-HRP to all wells, including the blank wells. Cover with a plate cover and incubate at room temperature, on a microplate shaker at 100 rpm if available, for 1 hour. Remove plate cover and empty the wells. Wash microwell strips […]
3 times as described in step 2. Proceed to the next step. Pipette 100 μl of mixed TMB Substrate Solution to all wells, including the blanks. Incubate the microwell strips at room temperature (18° to 25°C) for about 15 minutes, if available on a rotator set at 100 rpm. Avoid direct exposure to intense light. The point, at which the substrate reaction is stopped, is often determined by the ELISA reader. Many ELISA readers record absorbance only up to 2.0 O.D. Therefore, the color development within individual microwells must be watched by the person running the assay and the substrate reaction stopped before positive wells are no longer properly detectable. Stop the enzyme reaction by quickly pipetting 100 μL of Stop Solution into each well, including the blank wells. It is important that the Stop Solution is spread quickly and uniformly throughout the microwells to completely inactivate the enzyme. Results must be read immediately after the Stop Solution is added or within one hour if the microwell strips are stored at 2 - 8°C in the dark. Read absorbance of each microwell on a spectrophotometer using 450 nm as the primary wavelength.
4.3. Statistical analysis
Computerized Prism 5 program was used to statistically analyzed data using one-way ANOVA test followed by Tukey’s as post ANOVA for multiple comparison at P ≤.05.
Data were presented as mean ± SEM.

[7] = Figure 1, read-out: IC50 BRAF inhibitor
[8] = text b8, read-out: IC50 anti-BRAF^V600E

COC(=O)c1ccc2[nH]c(-c3ccc(Cl)cc3)nc2c1 [Compound 2]
IC50 [1, 7]: 2 nM | IC50 [1, 8]: 2000 nM

NNC(=O)c1ccc2[nH]c(-c3ccc(Cl)cc3)nc2c1 [Compound 3]
IC50 [1, 7]: 14 nM | IC50 [1, 8]: 14000 nM

COc1ccc(-c2nc3cc(-c4nnc(SCC(=O)Nc5ccc(C(=O)/C=C/c6ccccc6)cc5)o4)ccc3[nH]2)cc1 [Compound 4]
GI50 [2]: 1200 nM | IC50 [3]: 1700 ± 200 nM

CN[C@@H]1C[C@H]2O[C@@](C)([C@@H]1OC)n1c3ccccc3c3c4c(c5c6ccccc6n2c5c31)C(=O)NC4 [staurosporine, reference compound]
Caspase-3 Conc [4]: 260 ± 5 pg/mL | caspase-3 protein level [4]: 260 ± 5 pg/mL | Bax Conc [5]: 170 pg/mL | Bax increase compared to untreated PC-3 cancer cells [5]: 24 fold | Bax level [5]: 170 pg/mL | Bcl-2 Conc [6]: 1.00 ng/mL
